Here are results for 2 molecules from US20080318910A1, “Controlled-Release Oral Dosage Form” (MISTRAL PHARMA, INC., priority 2005, published 2008).

≈ marks a conversion by molar mass, not a printed value.

A short description of the data set: physchem.

Turning to `CCC(COC(=O)c1cc(OC)c(OC)c(OC)c1)(c1ccccc1)N(C)C` (stereo not shown) [Trimebutine], the solubility (as a rule, the concentration that dissolves in the medium under given conditions) by setting is: (pH 2, simulated gastric fluid) about 11000 µg/mL (≈ 28.4 mM); (pH 5.5, aqueous buffer) 1000 µg/mL (≈ 2.58 mM).

As for `C/C=C/C=C/C(=O)O` [Sorbic acid], the solubility by setting is: (aqueous buffer, solubility, pH higher than 4.8) about 333000 µg/mL (≈ 2970 mM); (aqueous buffer, solubility, pH lower than 4.8) about 2500 µg/mL (≈ 22.3 mM).
